Assay [1] deals with transected axons from cultured sympathetic neurons. In words: Wallerian degeneration of transected axons in cultured sympathetic ganglia. As to conditions: untreated transected axons: early signs 8 hr post-axotomy. It counts as cell-based, rat. From the text:
Inhibiting the ubiquitin-proteasome pathway delays Wallerian degeneration. Wallerian degeneration in most transected mammalian nerve fibers is a complex sequence that entails degradation of the axon, changes in the ensheathing and glial cells, alterations in the blood-tissue barriers, and responses of macrophage-lineage cells (reviewed by Griffin et al., 1995). To study the underlying mechanisms involved in the axon degeneration process, we have used the degeneration of transected axons from cultured primary neurons as models (Buckmaster et al., 1995; George et al., 1995; Wang et al., 2001). In cultured sympathetic ganglia derived from postnatal day 3 (p3) rats, soma-deprived axons undergo a typical degenerative process (herein, George et al., 1995; Wang et al., 2001). The severed axons first appear normal for 6-10 hr, depending upon the duration of culturing prior to axotomy. For sympathetic ganglia that have been cultured for 5 days, the severed axons begin to develop such signs of early degeneration as focal swelling and beading approximately 8 hrs after the axons had been separated from their cell bodies. In most cases, the axons would be completely degenerated and detached after 12-16 hr post-axotomy. Similar degenerative processes were also observed in other types of cultured neurons, such as chicken dorsal root ganglion neurons and retinal ganglion cells.
We examined whether UPS is involved in axotomy-triggered Wallerian degeneration by using specific pharmacological inhibitors. It is known that for UPS to degrade a specific substrate protein, the sequential action of three enzymes, including a ubiquitin activating enzyme (E1), a ubiquitin conjugating enzyme (E2), and a ubiquitin ligase (E3), is required to covalently link ubiquitin to the substrate. Poly-ubiquitinated proteins are then targeted for degradation by the 26S proteasome, which is composed of two 19S proteasome regulatory particles and a 20S core. Substrate ubiquitination may also be reversed by ubiquitin proteases (reviewed by Weissman, 2001). In spite of the existence of multiple E2 and E3 molecules, the final and common step in degrading polyubiquitinated protein substrates is through the 26S proteasome machinery. Consistent with previous evidence for the existence and functioning of the UPS in axons (Campbell and Holt, 2001, 2003), components of UPS machinery, such as subunit C2 of the proteasome 20S, were found in both intact and transected axons from sympathetic neurons. Thus, to perturb UPS activity we used two mechanistically different proteasome inhibitors, MG132, a peptide-based reversible proteasome inhibitor (Rock et al., 1994), and lactacystin, a […] irreversible proteasome inhibitor (Fenteany et al., 1995), both of which had been extensively used to inhibit UPS activity in many different cell types including cultured neurons (Campbell and Holt, 2001, 2003).
24 hr post-axotomy when most of the axon debris has detached from the culture surface in control cultures, proteasome inhibitor-treated explants still retained many axons with some degeneration signs, which remained up to 36 hr post-axotomy.
8 hr post-axotomy, approximately 90% of axons from control HSV-infected explants, and only about 40% of axons from HSV-UBP2-infected ones, developed a beading appearance. However, the protective effects of UBP2 overexpression were less robust than those of the proteasome inhibitors, presumably due to the low expression levels of UBP2.
As previous studies have implicated calpains, a class of calcium-dependent proteases, in Wallerian degeneration (George et al., 1995; Finn et al., 2000), we also examined the contribution of calpain activity in our assays with specific calpain inhibitors such as ALLN (Finn et al., 2000). […] 16 hr after axotomy when most of the transected axons from control cultures degenerated into debris, there were still remaining axon fibers in ALLN-treated cultures.

Assay [2] deals with transected optic nerve. In words: Wallerian degeneration of transected optic nerve in vivo (gelfoam at lesion site). More on the design: species or system mice. As to conditions: gelfoam pre-soaked with 50 mM MG132; 3 days post-axotomy; immunostaining. From the text:
MG132 slows down Wallerian degeneration of transected optic nerve in vivo. To assess whether these observations from in vitro culture experiments hold true in vivo, we first performed immunostaining experiments to examine the alterations of microtubules and neurofilaments in transected optic nerves. […] In optic nerves 3 days after axotomy when an antibody against NF160 still detected many linear neurofilament fibers, the antibody against a neuron specific b-tubulin detected largely spheroid bodies, reminiscent of the microtubule changes observed in vitro 16 hr post-axotomy. […] To examine whether proteasome inhibitors would retard Wallerian degeneration in vivo, we applied gelfoams pre-soaked with vehicle (PBS) or MG132 to the lesion sites and examined the transected optic nerves 3 days post-axotomy by immunostaining. Our experimental procedures were adapted from Meyer et al. (1994). In brief, adult mice were anesthetized by an intraperitoneal injection of ketamine (100 mg/kg) and xylazine (20 mg/kg). An incision was then made in the conjunctiva above the left orbit. The optic nerve was exposed under an operating microscope, and its dura opened longitudinally. […] At determined days after nerve crush, the animals were given a lethal dose of anesthesia and perfused through the heart with cold saline plus heparin followed by 4% paraformaldehyde. […]

Peptide text beside a SMILES is read from it. * marks the point of attachment. Cbz = O=C(OCc1ccccc1)*

For the molecule `CC(C)C[C@@H](C=O)NC(=O)[C@H](CC(C)C)NC(=O)[C@H](CC(C)C)NC(=O)OCc1ccccc1` [MG-132, Carbobenzoxy-L-leucyl-L-leucyl-L-leucinal] (Cbz-Leu-Leu-Leu-aldehyde), the “time post-axotomy until degeneration is shown” value in assay [1] came out at 16 h. The “breakdown of microtubules, neurofilaments and axolemma in transected optic nerves” value in assay [2] is “significantly slowed”.

The record behind these values is US7238659B2, “Reducing axon degeneration with proteasome inhibitors” (Children's Medical Center Corporation, priority 2003, dated 2007).
